Experimental data published in patent US20230103444A1 (The Regents of the University of Colorado, a Body Corporate, priority 2020, published 2023).
Read-outs that look alike come from different tables or passages of the source.

Key:
[1] = test system: vimentin promoter activity; experiment: VimPro-GFP reporter 3D high-content imaging in tumor organoids; assay type: cell-based, human; conditions: 72 h
Description: After validating hits 5-7 against CHD1L mediated TCF transcription, the ability of these compounds to reverse EMT and other malignant properties in CRC were evaluated. E-cadherin and vimentin are putative biomarkers for the epithelial and mesenchymal phenotypes, respectively. [McDonald et al., 2015] Loss of E-cadherin and gain of vimentin are also clinical biomarkers of poor prognosis. [Yun et al., 2014; Richardson et al., 2012; Dhanasekaran et al., 2001; Kashiwagi et al., 2010; Toiyama et al., 2013] Accordingly, lentiviral promoter driven reporters for E-cadherin (pCDH1-EcadPro-RFP) and vimentin (pCDH1-VimPro-GFP) were developed, which faithfully report E-cadherin and vimentin protein expression, respectively. [Zhou et al., 2016; Abraham et al., 2019] SW620 cells transduced with either EcadPro-RFP or VimPro-GFP were cultured as tumor organoids for 72 h, reaching a diameter of 600 μm. Tumor organoids were treated with compounds 5-7 for an additional 72 h to determine the effective concentration 50 percent (EC50) for modulating promoter activity. Changes in promoter expression was quantified using a 3D confocal image […] based high-content analysis algorithm (FIG. 2A-2B). [Zhou et al., 2016; Abraham et al., 2019]
Stable VimPro-GFP or EcadPro-RFP SW620 reporter cells were generated using pCDH imPro-GFP-EF1-puro virus or pCDH-EcadPro-mCherry-EF1-puro virus as previously reported. [Zhou et al., 2016; Abraham et al., 2019] The stable fluorescently labeled reporter cells were used to generate tumor organoids as described herein. Tumor organoids were treated with CHD1L inhibitors at 10 μM for an additional 72 h. Following treatment, tumor organoids were stained with 16 μM of Hoechst 33342 for 1 h (nuclei stain). Images were taken with a 5× air objective. Z-stacks were set at 26.5 μm apart for a total of 15 optical slices. Imaging and high-content analysis were performed using an Opera Phenix™ and Harmony® software (PerkinElmer, Hopkinton, Mass.). Nuclei were identified within each layer and cells were found with either GFP or mCherry channel. The fluorescence intensities of each channel were calculated and thresholds were set based on the background intensities. Percentages of GFP or mCherry RFP positive cells were calculated and normalized to the DMSO treated group.
3D High-Content Imaging and Analysis of EMT Dual-Reporter Activity. Tumor organoids were imaged using the Opera Phenix high-content screening system (PerkinElmer) in confocal mode utilizing a 10× air objective (NA 0.3). […] Organoids were also imaged in Brightfield to segment and perform high-content analysis of dual reporter specific fluorescence intensity. […] Both fluorescent signals were quantified and normalized as previously described. […]

[2] = test system: SW620 tumor organoids; experiment: Western blot of treated SW620 tumor organoids; assay type: cell-based, human
Description: CRC cell lines and homogenized tumor tissue samples from mice were resuspended in RIPA lysis buffer (20 mM Tris-HCl (pH 7.5), 150 mM NaCl, 1 mM Na2EDTA, 1 mM EGTA, 1% NP-40, 1% sodium deoxycholate, 2.5 mM sodium pyrophosphate, 1 mM b-glycerophosphate, 1 mM Na3VO4, 0.1 mM PMSF. Protein concentration was determined using the Pierce™ BCA protein assay kit (ThermoFisher, Waltham, Mass.). Forty micrograms of sample were run on 10% Bis-Tris gels. Following electrophoresis, the proteins were transferred to a nitrocellulose membrane. The membranes were blocked at room temperature with 5% non-fat milk in TBS/Tween® 20 (TBST contains 20 mM Tris, 150 mM NaCl, and 0.1% Tween®20 (Croda International PLC, Snaith, UK) for 1 hour at room temperature. Membranes were washed three times with TBST. Blots were incubated with the appropriate primary antibody in 5% nonfat milk in TBST overnight at 4° C. Membranes were washed three times with TBST and then incubated with appropriate secondary antibody for one hour. Membranes were washed again with TBST three times. Blots were exposed using SuperSignal™West Pico PLUS Chemiluminescent Substrate (ThermoFisher, Waltham, Mass.) and imaged using a ChemiDoc imaging system (Bio-Rad, Hercules, Calif.). [See: Abbott et al., 2020 and its Supplementary Information for Western Blots]

[3] = test system: HCT116 cells; experiment: Invasion assay (scratch wound in Matrigel); assay type: cell-based, human; conditions: 50% Matrigel, 48-72 h
Description: A hallmark of EMT is an increase in CSC stemness and cell invasion. Therefore, the ability of compounds 5-7 to inhibit migration and invasion in HCT-116 and DLD1^CHD1L-OE cells was tested. […] Note that DLD1^CHD1L-OE cells form two times more colonies than HCT-116 cells, which have moderate CHD1L expression. This observation is consistent with CHD1L's oncogenic and tumorigenic properties. Next, using HCT-116 cells with uniform scratch wounds imbedded in 50% Matrigel® matrix (Corning Life Sciences, Corning, N.Y.) cells were treated with CHD1L inhibitors at concentrations indicated and invasion was monitored over 72 h.
HCT116 cells were plated at 60,000 cells/well into an IncuCyte® ImageLock 96-well plate (Sartorius, France) and allowed to attach overnight. A wound was created in all wells using the IncuCyte® WoundMaker then washed 2× with PBS. The plate was brought to 4° C. using a Corning XT Cool Core to avoid polymerization of the Matrigel® matrix (Corning Life Sciences, Corning, N.Y.) during the preparation of the invasion conditions. Wells were coated with 50 μL of 50% Matrigel® matrix in RPMI-1640 media. Plates were centrifuged at 150 rpm at 4° C. for 3 min, using a swing bucket rotor to ensure even matrix coating with no air bubbles. […]

[4] = test system: HCT116 tumor organoids; experiment: Tumor organoid cytotoxicity (CellTiter-Glo 3D); assay type: cell-based, human; conditions: Homo sapiens
Description: Cell based cytotoxicity dose response and combination studies. […] Plates were then incubated for 3 days before treatment.
Cell Line Tumor Organoid Culture.
Tumor Organoid Cytotoxicity.

[5] = test system: SW620 tumor organoids; experiment: Tumor organoid cytotoxicity (CellTiter-Glo 3D); conditions: Homo sapiens
[6] = HCT-116, single agent, Table 4A, read-out: Tumor Organoid Cytotoxicity IC50 (μM) HCT116
[7] = SW-620, read-out: Tumor Organoid Cytotoxicity IC50 (μM) SW620

Structure (SMILES) | EC50 ([1]; Homo sapiens, SW-620, read-out: EC50 downregulation of vimentin promoter activity, SW620 tumor organoids) | E-cadherin cleavage (marker of apoptosis) [2] | inhibition of invasion, in words ([3]; listed as 6.0) | cleaved PARP1, cleaved caspase 8 and cleaved caspase 3 ([2]; relative to DMSO control) | IC50 [4, 6] | IC50 [5, 7] | downregulation of vimentin promoter activity (VimPro-GFP), in words ([1]; SW620 or HCT116 tumor organoids) | inhibition of invasion, in words [3] | IC50 ([4]; HCT-116, 72 h, Table 6, read-out: 3 D Cytotoxicity 72 hr IC50 (μM) HCT116) | IC50 ([5]; SW-620, 72 h, read-out: 3 D Cytotoxicity 72 hr IC50 (μM) SW620)
COc1ccc(-c2nc(S(=O)(=O)c3ccccc3)c(S(C)(=O)=O)o2)cc1 [Compound 5] | 15.6 ± 1.7 µM | E-cadherin is cleaved | – | – | – | – | – | – | – | –
Cc1cc(Nc2ccc(NC(=O)Cc3cccs3)cc2)nc(N2CCCC2)n1 [Compound 6, N-(4-((6-methyl-2-(pyrrolidin-1-yl)pyrimidin-4-yl)amino)phenyl)-2-(thiophen-2-yl)acetamide] | – | E-cadherin is cleaved | most potent activity | increases in cleaved PARP1, cleaved caspase 8, and cleaved caspase 3 | 4.93 µM | 4.6 µM | – | – | – | –
Cc1cc(Nc2ccc(NC(=O)c3c[nH]c4ccccc34)cc2)nc(N2CCCC2)n1 [Compound 6.3, N-(4-((6-methyl-2-(pyrrolidin-1-yl)pyrimidin-4-yl)amino)phenyl)-1H-indole-3-carboxamide] | – | – | – | – | 3.72 µM | 3.8 µM | downregulation of vimentin | significantly inhibits HCT116 invasive potential | 3.7 µM | 3.6 µM
